Data taken from BindingDB's records for patent US20250313563 (The Broad Institute, 2025).
“And” between values parts separate entries of the source, which are not always exact repeats. Equal values may be shown once.

Assays:
[1] = target: Glycogen synthase kinase-3 beta (Homo sapiens, UniProt P49841); assay: TR-FRET Assay
Procedure, shortened: (§1)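 30 min preinc w/ cpd in assay buffer → kinase rxn → EDTA quench → add detection mix (40 nM SA-d2, 2 nM Tb-pSer641 Ab) → TR-FRET read.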

[2] = target: Glycogen synthase kinase-3 alpha (Homo sapiens, UniProt P49840); assay: TR-FRET Assay
Procedure, shortened: as §1

Glycogen synthase kinase-3 beta, sequence (P49841 whole entry): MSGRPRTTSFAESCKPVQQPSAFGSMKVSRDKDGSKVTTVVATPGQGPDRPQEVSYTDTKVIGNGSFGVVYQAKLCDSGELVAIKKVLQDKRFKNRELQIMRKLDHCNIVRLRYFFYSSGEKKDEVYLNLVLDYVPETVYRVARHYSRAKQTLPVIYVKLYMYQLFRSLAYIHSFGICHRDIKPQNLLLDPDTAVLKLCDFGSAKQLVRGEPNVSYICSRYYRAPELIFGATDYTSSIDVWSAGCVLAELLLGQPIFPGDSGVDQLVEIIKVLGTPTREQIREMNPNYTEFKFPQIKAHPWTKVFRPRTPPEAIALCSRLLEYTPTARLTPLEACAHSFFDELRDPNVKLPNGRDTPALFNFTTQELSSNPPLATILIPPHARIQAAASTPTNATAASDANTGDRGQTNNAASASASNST
Glycogen synthase kinase-3 alpha, sequence (P49840 whole entry): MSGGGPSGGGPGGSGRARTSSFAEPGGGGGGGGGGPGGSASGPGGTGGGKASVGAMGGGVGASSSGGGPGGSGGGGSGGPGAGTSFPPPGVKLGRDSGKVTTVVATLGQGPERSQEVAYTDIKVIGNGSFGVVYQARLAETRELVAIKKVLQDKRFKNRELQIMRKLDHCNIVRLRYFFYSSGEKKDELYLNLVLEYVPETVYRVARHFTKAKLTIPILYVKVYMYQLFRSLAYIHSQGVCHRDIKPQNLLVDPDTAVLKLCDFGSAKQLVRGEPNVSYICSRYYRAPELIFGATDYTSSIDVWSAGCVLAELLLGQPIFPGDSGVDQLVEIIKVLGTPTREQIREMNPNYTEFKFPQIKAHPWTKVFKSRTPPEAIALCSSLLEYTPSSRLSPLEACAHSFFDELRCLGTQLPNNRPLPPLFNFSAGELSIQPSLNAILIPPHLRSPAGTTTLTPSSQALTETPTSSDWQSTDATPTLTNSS

For `CC[C@]1(c2cccc(-c3ccncc3F)c2)C2=C(CC(C)(C)NC2=O)NC2N=NC(C(F)F)=C21` (stereo not given in full) [US20250313563, Compound 951612], the IC50 [1] was < 100 nM and 1000 to 5000 nM and the IC50 [2] was < 100 nM and 100 to 1000 nM.

An IC50 [1] of 1000 to 5000 nM and an IC50 [2] of 100 to 1000 nM were found for `CC[C@@]1(c2cccc(N(C)c3ncccn3)c2)C2=C(CC(C)(C)NC2=O)NC2N=NC(Cl)=C21` (stereo not given in full) [US20250313563, Compound 951618] in this work.

With `CC(C)S(=O)(=O)N1CCC2(CC1)C1=C(N=NC1)NC1=C2C(=O)CC(C)(C)[C@H]1F` [US20250313563, Compound 951701] the IC50 [1] was < 100 nM and 1000 to 5000 nM and the IC50 [2] was < 100 nM and 100 to 1000 nM.

An IC50 [1] of 100 to 1000 nM and an IC50 [2] of 100 to 1000 nM were found for `CC[C@@]1(c2cccc(-c3cn(C)nc3C)c2)C2=C(N=NC2)NC2=C1C(=O)C(C)(C)C2` [US20250313563, Compound 951702] in this work.

`CC1(C)CC(=O)C2=C(NC3=C(CN=N3)C23CCN(S(=O)(=O)c2cccc(C(F)(F)F)c2)CC3)[C@@H]1F` [US20250313563, Compound 951703] was tested, and the IC50 [1] was < 100 nM and 1000 to 5000 nM and the IC50 [2] was < 100 nM and 100 to 1000 nM.

An IC50 [1] of under 100 nM and an IC50 [2] of under 100 nM were found for `CC1(C)CC(=O)C2=C(NC3=C(CN=N3)C23CCCCC3)[C@@H]1F` [US20250313563, Compound 951705] in this work.

An IC50 [1] of under 100 nM and an IC50 [2] of under 100 nM were found for `CC[C@@]1(c2cccc(-c3cn(C)nc3C3CC3)c2)C2=CN=NC2NC2=C1C(=O)NC(C)(C)C2` (stereo not given in full) [US20250313563, Compound 951706] in this work.

An IC50 [1] of 1000 to 5000 nM and an IC50 [2] of 100 to 1000 nM were found for `CC[C@@]1(c2cccc(-c3cnn(C4CCCCC4)c3)c2)C2=CN=NC2NC2=C1C(=O)NC(C)(C)C2` (stereo not given in full) [US20250313563, Compound 951707] in this work.

An IC50 [1] of 100 to 1000 nM and an IC50 [2] of under 100 nM were found for `Cn1ccc(S(=O)(=O)N2CCC3(CC2)C2=C(N=NC2)NC2=C3C(=O)CC(C)(C)[C@@H]2F)n1` [US20250313563, Compound 951708] in this work.

An IC50 [1] of 100 to 1000 nM and an IC50 [2] of under 100 nM were found for `Cn1ccc(S(=O)(=O)N2CCC3(CC2)C2=C(N=NC2)NC2=C3C(=O)CC(C)(C)[C@H]2F)n1` [US20250313563, Compound 951709] in this work.

An IC50 [1] of over 5000 nM and an IC50 [2] of over 5000 nM were found for `CC[C@]1(c2cccc(C3=CN(C)NC3C)c2)C2=C(N=NC2)NC2=C1C(=O)C(C)(C)C2` (stereo not given in full) [US20250313563, Compound 951710] in this work.

An IC50 [1] of under 100 nM and an IC50 [2] of under 100 nM were found for `CC1(C)CC(=O)C2=C(NC3N=NC=C3C23CCCCC3)[C@H]1F` (stereo not given in full) [US20250313563, Compound 951711] in this work.

With `CC1(C)CC(=O)C2=C(NC3=C(CN=N3)C23CCN(S(=O)(=O)c2cccc(C(F)(F)F)c2)CC3)[C@H]1F` [US20250313563, Compound 951713] the IC50 [1] was < 100 nM and 1000 to 5000 nM and the IC50 [2] was < 100 nM and 100 to 1000 nM.

With `CC(C)S(=O)(=O)N1CCC2(CC1)C1=C(N=NC1)NC1=C2C(=O)CC(C)(C)[C@@H]1F` [US20250313563, Compound 951714] the IC50 [1] was < 100 nM and 100 to 1000 nM and the IC50 [2] was < 100 nM and 100 to 1000 nM.

An IC50 [1] of under 100 nM and an IC50 [2] of under 100 nM were found for `CC1(C)CC(=O)C2=C(C1)NC1=C(CN=N1)[C@@]21CCN(S(=O)(=O)CC2CC2)C1` [US20250313563, Compound 951724] in this work.

An IC50 [1] of 1000 to 5000 nM and an IC50 [2] of 100 to 1000 nM were found for `Cn1cc(S(=O)(=O)N2CC[C@@]3(C2)C2=C(N=NC2)NC2=C3C(=O)CC(C)(C)C2)cn1` [US20250313563, Compound 951725] in this work.

With `Cn1cc(S(=O)(=O)N2CC[C@]3(C2)C2=C(N=NC2)NC2=C3C(=O)CC(C)(C)C2)cn1` [US20250313563, Compound 951726] the IC50 [1] was < 100 nM and 1000 to 5000 nM and the IC50 [2] was < 100 nM and 1000 to 5000 nM.

An IC50 [1] of 100 to 1000 nM and an IC50 [2] of under 100 nM were found for `CC[C@]1(c2cccc(C(F)(F)F)c2)C2=CN=NC2NC2=C1C(=O)N(c1cnsc1)CC2` (stereo not given in full) [US20250313563, Compound 951733] in this work.

An IC50 [1] of 100 to 1000 nM and an IC50 [2] of under 100 nM were found for `CC[C@]1(c2cccc(N(C)c3ncccn3)c2)C2=C(CC(C)(C)NC2=O)NC2N=NC(C(F)F)=C21` (stereo not given in full) [US20250313563, Compound 951736] in this work.

In the case of `CC[C@@]1(c2cccc(N(C)c3ncccn3)c2)C2=C(CC(C)(C)NC2=O)NC2N=NC(C(F)F)=C21` (stereo not given in full) [US20250313563, Compound 951740], the IC50 [1] is reported as < 100 nM and 100 to 1000 nM and the IC50 [2] is reported as under 100 nM.

An IC50 [1] of 1000 to 5000 nM and an IC50 [2] of 100 to 1000 nM were found for `CC[C@@]1(c2cccc(C(F)(F)F)c2)C2=CN=NC2NC2=C1C(=O)N(c1cnsc1)CC2` (stereo not given in full) [US20250313563, Compound 951742] in this work.

With `CC1(C)CC(=O)C2=C(C1)NC1=C(CN=N1)[C@@]21CCN(S(=O)(=O)c2ccccc2)C1` [US20250313563, Compound 951788] the IC50 [1] was < 100 nM and 1000 to 5000 nM and the IC50 [2] was < 100 nM and 100 to 1000 nM.

An IC50 [1] of 100 to 1000 nM and an IC50 [2] of 100 to 1000 nM were found for `COc1cccc(S(=O)(=O)N2CC[C@@]3(C2)C2=C(N=NC2)NC2=C3C(=O)CC(C)(C)C2)c1` [US20250313563, Compound 951789] in this work.

An IC50 [1] of under 100 nM and an IC50 [2] of under 100 nM were found for `COc1cccc(S(=O)(=O)N2CC[C@]3(C2)C2=C(N=NC2)NC2=C3C(=O)CC(C)(C)C2)c1` [US20250313563, Compound 951790] in this work.

An IC50 [1] of 1000 to 5000 nM and an IC50 [2] of 100 to 1000 nM were found for `CC[C@@]1(c2cccc(-c3cnn(CC4CCOC4)c3)c2)C2=CN=NC2NC2=C1C(=O)NC(C)(C)C2` (stereo not given in full) [US20250313563, Compound 951836] in this work.
